From EP3287466B1, “AMORPHOUS PICEATANNOL 3'-O-GLUCOSIDE AND PREPARATION METHOD THEREOF” (KPC Pharmaceuticals, Inc., priority 2015, dated 2016)
≈ marks a conversion by molar mass, not a printed value.

Assay: Solubility test (shaken 30 min to saturation, content measured by HPLC)
Type: physicochemical
Settings: shaken for 30min to saturation; for piceatannol 3'-O-glucoside solubility, 0.9% aqueous solution of Sodium chloride: in 0.9wt% aqueous solution of sodium chloride
Procedure: Appropriate amounts of samples 1 to 4 and raw material sample were taken. Water, 0.9wt% aqueous solution of sodium chloride were added, respectively, and shaken for 30min, respectively, to dissolve the sample to saturation. The above solutions were taken and subjected to HPLC to measure the content of piceatannol 3'-O-glucoside in the solutions. Table 1. Comparison of the results of piceatannol 3'-O-glucoside solubility (mg/ml)

## OC[C@H]1O[C@@H](Oc2cc(/C=C/c3cc(O)cc(O)c3)ccc2O)[C@H](O)[C@@H](O)[C@@H]1O [Sample 2, piceatannol 3'-O-glucoside]
30 min
  piceatannol 3'-O-glucoside solubility, 0.9% aqueous solution of Sodium chloride: 14.19 mg/mL

## OC[C@H]1O[C@@H](Oc2cc(/C=C/c3cc(O)cc(O)c3)ccc2O)[C@H](O)[C@@H](O)[C@@H]1O [Sample 3, piceatannol 3'-O-glucoside]
water, in water, read-out: piceatannol 3'-O-glucoside solubility, Water
  solubility at 0.5 h: 15.2 mg/mL (≈ 37.5 mM)

## OC[C@H]1O[C@@H](Oc2cc(/C=C/c3cc(O)cc(O)c3)ccc2O)[C@H](O)[C@@H](O)[C@@H]1O [Raw material sample, piceatannol 3'-O-glucoside]
30 min
  piceatannol 3'-O-glucoside solubility, 0.9% aqueous solution of Sodium chloride: 4.67 mg/mL

## OC[C@H]1O[C@@H](Oc2cc(/C=C/c3cc(O)cc(O)c3)ccc2O)[C@H](O)[C@@H](O)[C@@H]1O [Sample 4, piceatannol 3'-O-glucoside]
30 min
  piceatannol 3'-O-glucoside solubility, 0.9% aqueous solution of Sodium chloride: 14.31 mg/mL
In water, 30 min
  piceatannol 3'-O-glucoside solubility, Water: 14.45 mg/mL

## OC[C@H]1O[C@@H](Oc2cc(/C=C/c3cc(O)cc(O)c3)ccc2O)[C@H](O)[C@@H](O)[C@@H]1O [Sample 1, piceatannol 3'-O-glucoside]
30 min
  piceatannol 3'-O-glucoside solubility, 0.9% aqueous solution of Sodium chloride: 14.36 mg/mL
